Here are results for nine compounds from patent US10889554B2, “Excimer forming compounds” (THE GOVERNING COUNCIL OF THE UNIVERSITY OF TORONTO, priority 2013, dated 2021).

Structures are written as SMILES.

For data set [1], the system named is pYpY peptide. The data set is described as follows: Detection of pY and pYpY peptides with non-pyrene excimer forming derivatives. In kind it is binding. Particulars: for excimer emission peak in response to pYpY peptide in fluorescence emission spectra / peak when pYpY spectra are divided by those of pY or buffer control: 250 μM Zn^2+ triflate complexes, 125 μM peptide, irradiated at 290 nm; for detection limit of pYpY peptide, selectively over pY peptide: 250 μM compound in complex with Zn^2+ (triflate salt), pH 7.5 50 mM HEPES, 10% DMSO. As to the method:
Non-pyrene excimer forming derivatives (compounds 4-7) were synthesized and assessed for their ability to sense proximally phosphorylated peptides. All experiments for these derivatives were performed in pH 7.5 50 mM HEPES, 10% DMSO. 125 μM pY and pYpY peptides were combined with 250 μM of compounds 4, 5 and 6 (Zn^2+ triflate complexes), or buffer as background control, and the solution was irradiated at 290 nm and fluorescence emission scan was recorded. […] These peaks indicate that the spike in response to the addition of pYpY corresponds to excimer formation, since 420 nm region corresponds to a roughly 100 nm shift from the monomer emission maximum (approximately at 330 nm).
pY and pYpY peptides were titrated into 250 μM of compound 4 in complex with Zn^2+ (triflate salt) in pH 7.5 50 mM HEPES, 10% DMSO. […] Time-resolved experiments were also conducted, where the delay time prior to acquisition of fluorescence was varied (0, 5, 10, and 15 μs; FIG. 21). In this case, the concentration of compound 4 in complex with Zn^2+ (triflate salt) was constant at 40 μM.
pY and pYpY peptides were also titrated into 250 μM of compound 5 in complex with Zn^2+ (triflate salt) in pH 7.5, 50 mM HEPES, 10% DMSO. The fluorescence emission spectra (FIG. 23) indicate a pYpY-selective enhancement in the excimer region of the fluorophore.

Data set [2] has as its target T1, β-casein (Bos taurus, UniProt P02666).
T1 construct: purchased Sigma Aldrich C6905-250MG
T1 sequence (P02666 16-224): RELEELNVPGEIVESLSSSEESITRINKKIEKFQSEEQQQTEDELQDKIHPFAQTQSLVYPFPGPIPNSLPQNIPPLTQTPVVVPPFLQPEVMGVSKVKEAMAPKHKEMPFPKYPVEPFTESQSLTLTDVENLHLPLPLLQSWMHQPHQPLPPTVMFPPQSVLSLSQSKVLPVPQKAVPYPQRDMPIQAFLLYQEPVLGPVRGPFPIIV
As to the kind of experiment: On-gel detection of proximally phosphorylated protein using GaCl3 complexes. It is filed as binding. As to the method:
(§1) Compound 8 was dissolved in 50 mM NaOAc buffer, pH 4.5, 50 mM NaCl, 10% DMSO and combined with 80, 160 or and 240 μM GaCl3 solutions. Each gel contained 4 lanes with equal amounts of BSA, ovalbumin (Ova), β-casein (β-cas) and lysozyme (Lyso) in each lane (left to right: 1, 0.5, 0.25 and 0.125 μg per protein per lane) (see FIG. 37). Gels were stained for 1 h with the sensor solution. Gels were first de-stained with 50 mM NaOAc buffer pH 4.5 for 2 h and then with 50 mM NaOAc buffer pH 4.0 20% acetonitrile for 40 h.
(§2) Compound 8 was dissolved in 100 mM NaOAc buffer, pH 4.5, 150 mM NaCl, 20% propylene glycol and combined with 10 and 15 μM GaCl3 solutions. Each gel contained 4 lanes with equal amounts of BSA, ovalbumin (Ova), β-casein (β-cas) and lysozyme (Lyso) in each lane (FIG. 40) left to right: 1, 0.5, 0.25 and 0.125 μg per protein per lane). Gels were stained for 1.5 h with the sensor solution. Destaining was performed for variable time (specified at the top) with 50 mM NaOAc, pH 4.0, 20% acetonitrile. Gels were rinsed with MiliQ water for 5 min prior to imaging. Images were acquired using ChemiDoc MP, using a 530 nm emission filter and UV trans excitation.
as §1, with “Compound 2” for “Compound 8”, “lane) (FIG. 42).” for “lane) (see FIG. 37).”, “h. […] However with the increased destaining time the intensity of β-casein band relative to other proteins was increasing, resulting in a 6.7-fold higher intensity over the distally phosphorylated protein ovalbumin. Lane containing 1 μg of each protein was analyzed (FIG. 43).” for “h.”
as §2, with “2” for “8”, “45)” for “40)”, “acetonitrile (see FIGS. 45 and 46).” for “acetonitrile.”

The subject of data set [3] is proximally phosphorylated proteins (α-casein, β-casein and D-α-casein). As to the kind of experiment: In-solution detection of proteins. In kind it is binding, Bos taurus. Particulars: Zn^2+ (triflate salt) complexes; pH 7.5, 50 mM HEPES, 75 mM NaCl, 20% DMSO. The source says:
Non-phosphorylated (BSA and lysozyme) and distally phosphorylated negative control proteins (ovalbumin) were used in detection methods for in-solution, on gel and on blot applications. Dephosphorylated α-casein (D-α-casein), β-casein and α-casein served as proximally phosphorylated positive controls (see Table 2). The phosphosites presented in Table 2 were obtained from the PhosphoSitePlus database or a UniProt database.
Various conditions for the detection of proximally phosphorylated proteins and proteins in aqueous solution are shown in Table 3. Proteins were dissolved in a buffer at various concentrations (normally 100 μM to 40 nM), and combined with 40 μM of compound 1 in complex with Zn^2+ (triflate salt) dissolved in the same buffer on a 384 well flat bottom black plate. The mixture was incubated for 20 minutes and fluorescence emission intensity at 476 nm (10-20 nm bandwidth) was measured using a Tecan M1000 microplate reader, upon excitation at 350 nm (5 nm bandwidth) at 400 Hz. The different conditions tested were assessed based on the ratios of signal intensity of positive to negative control analytes and signal intensity in general. Among the parameters assessed in this study and using these specific control proteins, the following conditions were selected for proteins studies: pH 5.5 50 mM NaOAc, 50 mM NaCl, 5% DMSO (see FIG. 27). […] Depending on the number of proximally di-phosphorylated sites, lower detection limits could be achieved by using lower concentration of a sensor.
Using same methods as described in Example 1.1c, Zn^2+ (triflate salt) complexes of compounds 1 (top left), compound 9 (top right), compound 15 (middle left), and compound 14 (middle right) were tested in pH 7.5, 50 mM HEPES, 75 mM NaCl, 20% DMSO (see FIG. 28).
Using same methods as described in Example 14, 40 and 20 μM of Zn^2+ (triflate salt) complexes of compound 1 (top) and compound 12 (bottom) (FIG. 29), were tested in pH 7.5, 50 mM HEPES, 5% DMSO.
Using same methods as described above, 60, 40, 20 and 10 μM of Zn^2+ (triflate salt) complexed with compound 12 (FIG. 30), were titrated with 80-0.04 μM of proteins in pH 7.5, 50 mM HEPES, 5% DMSO.

For the compound `O=C(Cc1ccc2ccc3cccc4ccc1c2c34)N1CCNCCNCCNCC1`, the melting point was in the range of 75 to 79 °C.
Compound `O=C(CCCc1ccc2ccc3cccc4ccc1c2c34)N1CCNCCNCCNCC1` showed a melting point of 83 to 86 °C.
Still for that read-out and setting: under `c1cc2ccc3ccc(CCCCOCc4cc(CN5CCNCCNCCNCC5)cc(CN5CCNCCNCCNCC5)c4)c4ccc(c1)c2c34` stands 55 to 60 °C.
For the compound `c1ccc2c(CN3CCNCCNCCNCC3)cccc2c1` [compound 4, 1-(naphthalen-1-ylmethyl)-1,4,7,10-tetraazacyclododecane], in data set [1], the “excimer emission peak in response to pYpY peptide in fluorescence emission spectra” value (“excimer emission peak in response” below) is on record as “No distinct peak”; the “peak when pYpY spectra are divided by those of pY or buffer control” value is listed as “distinct peak in the 420 nm region”; the “detection limit of pYpY peptide, selectively over pY peptide” value is recorded as “single-digit”. Also, the “signal selectivity towards pYpY with 15 μs delay time” value in data set [1] (time-resolved, 40 μM compound in complex with Zn^2+) is “retained”.
As for `c1ccc2cc(CN3CCNCCNCCNCC3)ccc2c1` [compound 5, 1-(naphthalen-2-ylmethyl)-1,4,7,10-tetraazacyclododecane], in data set [1], the “excimer emission peak in response” value is listed as “No distinct peak”; the “peak when pYpY spectra are divided by those of pY or buffer control” value is “distinct peak in the 420 nm region”; the “detection limit of pYpY peptide, selectively over pY peptide” value was “single-digit”.
As to `c1ccc2c(c1)cc(CN1CCNCCNCCNCC1)c1ccccc12` [compound 6, 1-(phenanthren-9-ylmethyl)-1,4,7,10-tetraazacyclododecane], in data set [1], the “excimer emission peak in response” value is listed as “No distinct peak”.
Take `O=C(O)CN(CC(=O)O)c1ccccc1OCCOc1cc(NC(=O)c2ccc3ccc4cccc5ccc2c3c45)ccc1N(CC(=O)O)CC(=O)O` [compound 8, 2,2′-((2-(2-(2-(bis(carboxymethyl)amino)-5-(pyrene-1-carboxamido)phenoxy)ethoxy)phenyl)azanediyl)diacetic acid]: the “selectivity for β-casein after 2 h destaining” value in data set [2] (80 μM compound, 1:1 GaCl3, stained 1 h) was “improved”. For the same compound, the “β-casein over distally phosphorylated ovalbumin” value in data set [2] (80 μM compound, 1:1 GaCl3, stained 1 h, 40 h destaining, 1 μg per protein) is given as 4.5 fold. Moreover, in data set [2] (50 mM NaOAc pH 4.5, 50 mM NaCl, 10% DMSO, 160 or 240 μM GaCl3), the “selectivity for β-casein with more than 1:1 equivalent of compound:GaCl3” value is reported as “did not result in good selectivity”. In addition, the “selective staining for β-casein, no destaining” value in data set [2] (100 mM NaOAc pH 4.5, 150 mM NaCl, 20% propylene glycol, 1:1 and 1:1.5 compound:GaCl3, stained 1.5 h) is “did not result in selective staining”. Further, the “staining of β-casein band following 16 h destain” value in data set [2] (100 mM NaOAc pH 4.5, 150 mM NaCl, 20% propylene glycol, destain 50 mM NaOAc, pH 4.0, 20% acetonitrile) was “most prominently stained band”.
With `c1ccc(CN(Cc2ccccn2)Cc2ccc3ccc4cccc5ccc2c3c45)nc1` [compound 14, 1-(pyren-1-yl)-N,N-bis(pyridin-2-ylmethyl)methanamine], the melting point lay in the range of 108 to 112 °C. Also, in data set [3], the “efficiency at detecting the proximally phosphorylated proteins” value was “comparable efficiency”.
`c1ccc(CN(CCCCc2ccc3ccc4cccc5ccc2c3c45)Cc2ccccn2)nc1` [compound 15, 4-(pyren-1-yl)-N,N-bis(pyridin-2-ylmethyl)butan-1-amine]: the melting point fell in the range of 61 to 62 °C. In addition, the “efficiency at detecting the proximally phosphorylated proteins” value in data set [3] is listed as “comparable efficiency”.

For orientation: melting point means the temperature of the solid-liquid transition.
